The target of the test is T1, human PDE4B1 (Homo sapiens, UniProt Q07343).
T1 construct: host or cells: Sf9 cells
T1 sequence (Q07343 whole entry): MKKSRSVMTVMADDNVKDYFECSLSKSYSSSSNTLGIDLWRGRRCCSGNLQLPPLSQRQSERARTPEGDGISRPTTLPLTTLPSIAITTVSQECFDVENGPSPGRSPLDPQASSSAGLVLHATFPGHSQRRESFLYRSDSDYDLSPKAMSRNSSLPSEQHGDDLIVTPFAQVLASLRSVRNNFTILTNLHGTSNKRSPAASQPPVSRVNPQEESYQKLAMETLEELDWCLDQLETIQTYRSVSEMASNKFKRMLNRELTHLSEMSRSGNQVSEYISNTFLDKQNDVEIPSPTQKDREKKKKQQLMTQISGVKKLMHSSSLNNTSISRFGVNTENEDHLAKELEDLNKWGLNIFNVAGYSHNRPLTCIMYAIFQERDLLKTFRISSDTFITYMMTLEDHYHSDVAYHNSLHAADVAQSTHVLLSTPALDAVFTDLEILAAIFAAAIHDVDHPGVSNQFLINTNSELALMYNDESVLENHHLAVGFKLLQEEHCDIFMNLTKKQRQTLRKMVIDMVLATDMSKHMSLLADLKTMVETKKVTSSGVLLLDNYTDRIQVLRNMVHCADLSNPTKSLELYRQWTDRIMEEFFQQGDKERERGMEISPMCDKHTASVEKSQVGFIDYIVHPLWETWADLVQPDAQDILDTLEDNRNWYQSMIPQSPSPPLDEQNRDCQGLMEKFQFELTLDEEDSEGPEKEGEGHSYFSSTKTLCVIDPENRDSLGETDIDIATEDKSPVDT
Briefly: cAMP HTRF assay to determine the activity of hPDE4B1. It counts as biochemical. The conditions noted are these: inhibition of PDE4B at a test concentration of 1 μM. The gist of the method:
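Human recombinant PDE4B1 from Sf9 cells (4.8 U) in Tris-HCl, MgCl2, DTT, Tween 20 buffer at pH 7.8 with 40 nM cAMP (final), 30 min at room temperature. Reaction stopped with 1 mM IBMX; remaining cAMP detected by HTRF (665/620 nm ratio). IC50 from eight-concentration curves.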
(Time-resolved FRET reads energy transfer from a long-lived donor to a nearby acceptor.)
As for `C[S+]([O-])c1cn(-c2ncc(-c3ccccc3F)cn2)c2cc(C(=O)NCC3COC3)ccc12` (stereo not drawn) [Example 83, 1-(5-(2-Fluorophenyl)pyrimidin-2-yl)-3-(methylsulfinyl)-N-(oxetan-3-ylmethyl)-1H-indole-6-carboxamide], the inhibition at 1 µM amounted to 67%.
The result for `C[C@@H]1CN(C(=O)c2ccc3c([S+](C)[O-])cn(-c4ncc(-c5ccccc5F)cn4)c3c2)CCO1` (stereo partly drawn) [Example 84, (1-(5-(2-Fluorophenyl)pyrimidin-2-yl)-3-(methylsulfinyl)-1H-indol-6-yl)((R)-2-methylmorpholino)methanone] reads 106%.
The result for `C[C@H]1CN(C(=O)c2ccc3c([S+](C)[O-])cn(-c4ncc(-c5ccccc5F)cn4)c3c2)CCO1` (stereo partly drawn) [Example 85, (1-(5-(2-Fluorophenyl)pyrimidin-2-yl)-3-(methylsulfinyl)-1H-indol-6-yl)((S)-2-methylmorpholino)methanone] reads 115%.
For `C[S+]([O-])c1cn(-c2ncc(-c3ccc(O)cc3)cn2)c2cc(C(=O)N3CCOCC3)ccc12` (stereo not drawn) [Example 86, (1-(5-(4-Hydroxyphenyl)pyrimidin-2-yl)-3-(methylsulfinyl)-1H-indol-6-yl)(morpholino)methanone], the inhibition at 1 µM came out at 99%.
The result for `Cc1cccc(-c2cnc(-n3cc(S(C)(=O)=O)c4ccc(C(=O)N5CCOCC5)cc43)nc2)c1` [Example 156, (3-(Methylsulfonyl)-1-(5-(m-tolyl)pyrimidin-2-yl)-1H-indol-6-yl)(morpholino) methanone] reads 58%; that for `COc1cccc(-c2cnc(-n3cc(S(C)(=O)=O)c4ccc(C(=O)N5CCOCC5)cc43)nc2)c1` [Example 159, (1-(5-(3-Methoxyphenyl)pyrimidin-2-yl)-3-(methylsulfonyl)-1H-indol-6-yl)(morpholino)methanone], 98%; that for `COc1ccc(F)c(-c2cnc(-n3cc(S(C)(=O)=O)c4ccc(C(=O)N5CCOCC5)cc43)nc2)c1` [Example 162, (1-(5-(2-Fluoro-5-methoxyphenyl)pyrimidin-2-yl)-3-(methylsulfonyl)-1H-indol-6-yl)(morpholino)methanone], 95%.
`Cc1cccc(-c2cnc(-n3cc(S(C)(=O)=O)c4ccc(C(=O)N5CC[C@@H](N)C5)cc43)nc2)c1` [Example 167, (R)-(3-Aminopyrrolidin-1-yl)(3-(methylsulfonyl)-1-(5-(m-tolyl)pyrimidin-2-yl)-1H-indol-6-yl)methanone]: the inhibition at 1 µM was 87%.
The value for `CC(O)CN(C)C(=O)c1ccc2c([S+](C)[O-])cn(-c3ncc(-c4ccccc4F)cn3)c2c1` (stereo not drawn) [Example 168, 1-(5-(2-Fluorophenyl)pyrimidin-2-yl)-N-(2-hydroxypropyl)-N-methyl-3-(methylsulfinyl)-1H-indole-6-carboxamide] was 43%; that for `CN(C(=O)c1ccc2c([S+](C)[O-])cn(-c3ncc(-c4ccccc4F)cn3)c2c1)C1(CO)CC1` (stereo not drawn) [Example 170, 1-(5-(2-Fluorophenyl)pyrimidin-2-yl)-N-(1-(hydroxymethyl)cyclopropyl)-N-methyl-3-(methylsulfinyl)-1H-indole-6-carboxamide] was 54%.
The result for `CN(CC(C)(C)O)C(=O)c1ccc2c([S+](C)[O-])cn(-c3ncc(-c4ccccc4F)cn3)c2c1` (stereo not drawn) [Example 171, 1-(5-(2-Fluorophenyl)pyrimidin-2-yl)-N-(2-hydroxy-2-methylpropyl)-N-methyl-3-(methylsulfinyl)-1H-indole-6-carboxamide] reads 38%.
The value for `CN(CC(=O)O)C(=O)c1ccc2c([S+](C)[O-])cn(-c3ncc(-c4ccccc4F)cn3)c2c1` (stereo not drawn) [Example 173, 2-(1-(5-(2-Fluorophenyl)pyrimidin-2-yl)-N-methyl-3-(methylsulfinyl)-1H-indole-6-carboxamido)acetic acid] was 70%.
As for `CN(CC(N)=O)C(=O)c1ccc2c([S+](C)[O-])cn(-c3ncc(-c4ccccc4F)cn3)c2c1` (stereo not drawn) [Example 174, N-(2-Amino-2-oxoethyl)-1-(5-(2-fluorophenyl)pyrimidin-2-yl)-N-methyl-3-(methylsulfinyl)-1H-indole-6-carboxamide], the inhibition at 1 µM stood at 105%.
For `C[S+]([O-])c1cn(-c2ncc(-c3ccccc3F)cn2)c2cc(C(=O)N3CC4CC3CN4)ccc12` (stereo not drawn) [Example 175, 2,5-Diazabicyclo[2.2.1]heptan-2-yl(1-(5-(2-fluorophenyl)pyrimidin-2-yl)-3-(methylsulfinyl)-1H-indol-6-yl)methanone], the inhibition at 1 µM is 114%.
With `COC(=O)CN(C)C(=O)c1ccc2c([S+](C)[O-])cn(-c3ncc(-c4ccccc4F)cn3)c2c1` (stereo not drawn) [Example 177, Methyl 2-(1-(5-(2-fluorophenyl)pyrimidin-2-yl)-N-methyl-3-(methylsulfinyl)-1H-indole-6-carboxamido)acetate], the inhibition at 1 µM came to 39%.
As for `C[C@H]1COCCN1C(=O)c1ccc2c([S+](C)[O-])cn(-c3ncc(-c4ccccc4F)cn3)c2c1` (stereo partly drawn) [Example 178, (1-(5-(2-Fluorophenyl)pyrimidin-2-yl)-3-(methylsulfinyl)-1H-indol-6-yl)((S)-3-methylmorpholino)methanone], the inhibition at 1 µM stood at 88%.
Regarding `C[C@@H]1COCCN1C(=O)c1ccc2c([S+](C)[O-])cn(-c3ncc(-c4ccccc4F)cn3)c2c1` (stereo partly drawn) [Example 179, (1-(5-(2-Fluorophenyl)pyrimidin-2-yl)-3-(methylsulfinyl)-1H-indol-6-yl)((R)-3-methylmorpholino)methanone], the inhibition at 1 µM was 90%.
Turning to `Cc1cccc(-c2cnc(-n3cc([S+](C)[O-])c4ccc(C(=O)N5CCOCC5)cc43)nc2)n1` (stereo not drawn) [Example 180, (1-(5-(6-Methylpyridin-2-yl)pyrimidin-2-yl)-3-(methylsulfinyl)-1H-indol-6-yl)(morpholino)methanone], the inhibition at 1 µM was 99%.
`C[S+]([O-])c1cn(-c2ncc(-c3cc(C#N)ccn3)cn2)c2cc(C(=O)N3CCOCC3)ccc12` (stereo not drawn) [Example 181, 2-(2-(3-(Methylsulfinyl)-6-(morpholine-4-carbonyl)-1H-indol-1-yl)pyrimidin-5-yl)isonicotinonitrile]: the inhibition at 1 µM stood at 96%.
Consider `C[S+]([O-])c1cn(-c2ncc(-c3cc(F)ccn3)cn2)c2cc(C(=O)N3CCOCC3)ccc12` (stereo not drawn) [Example 182, (1-(5-(4-Fluoropyridin-2-yl)pyrimidin-2-yl)-3-(methylsulfinyl)-1H-indol-6-yl)(morpholino)methanone], for which the inhibition at 1 µM came out at 95%.
The value for `C[S+]([O-])c1cn(-c2ncc(-c3cccc(C#N)n3)cn2)c2cc(C(=O)N3CCOCC3)ccc12` (stereo not drawn) [Example 183, 6-(2-(3-(Methylsulfinyl)-6-(morpholine-4-carbonyl)-1H-indol-1-yl)pyrimidin-5-yl)picolinonitrile] was 60%; that for `C[S+]([O-])c1cn(-c2ncc(-c3cccc(F)n3)cn2)c2cc(C(=O)N3CCOCC3)ccc12` (stereo not drawn) [Example 185, (1-(5-(6-Fluoropyridin-2-yl)pyrimidin-2-yl)-3-(methylsulfinyl)-1H-indol-6-yl)(morpholino)methanone] was 97%; that for `C[S+]([O-])c1cn(-c2ncc(-c3ccccc3)cn2)c2cc(C(=O)N3CC[C@@H](N)C3)ccc12` (stereo partly drawn) [Example 223, ((R)-3-Aminopyrrolidin-1-yl)(3-(methylsulfinyl)-1-(5-phenylpyrimidin-2-yl)-1H-indol-6-yl)methanone] was 89%.
As to `Cc1cccc(-c2cnc(-n3cc([S+](C)[O-])c4ccc(C(=O)N5CC[C@@H](N)C5)cc43)nc2)c1` (stereo partly drawn) [Example 224, ((R)-3-Aminopyrrolidin-1-yl)(3-(methylsulfinyl)-1-(5-(m-tolyl)pyrimidin-2-yl)-1H-indol-6-yl)methanone], the inhibition at 1 µM stood at 102%.
With `C[S+]([O-])c1cn(-c2ncc(-c3cc(C#N)ccc3F)cn2)c2cc(C(=O)N3CC[C@@H](N)C3)ccc12` (stereo partly drawn) [Example 225, 3-(2-(6-((R)-3-Aminopyrrolidine-1-carbonyl)-3-(methylsulfinyl)-1H-indol-1-yl)pyrimidin-5-yl)-4-fluorobenzonitrile], the inhibition at 1 µM came to 92%.
Turning to `COc1ccc(F)c(-c2cnc(-n3cc([S+](C)[O-])c4ccc(C(=O)N5CC[C@@H](N)C5)cc43)nc2)c1` (stereo partly drawn) [Example 226, ((R)-3-Aminopyrrolidin-1-yl)(1-(5-(2-fluoro-5-methoxyphenyl)pyrimidin-2-yl)-3-(methylsulfinyl)-1H-indol-6-yl)methanone], the inhibition at 1 µM is 99%.
The value for `Cc1ccc(F)c(-c2cnc(-n3cc([S+](C)[O-])c4ccc(C(=O)N5CC[C@@H](N)C5)cc43)nc2)c1` (stereo partly drawn) [Example 227, ((R)-3-Aminopyrrolidin-1-yl)(1-(5-(2-fluoro-5-methylphenyl)pyrimidin-2-yl)-3-(methylsulfinyl)-1H-indol-6-yl)methanone] was 108%; that for `CS(=O)(=O)c1cn(-c2ncc(-c3ccccc3)cn2)c2cc(C(=O)N3CC[C@@H](N)C3)ccc12` [Example 228, (R)-(3-Aminopyrrolidin-1-yl)(3-(methylsulfonyl)-1-(5-phenylpyrimidin-2-yl)-1H-indol-6-yl)methanone] was 104%.
For `CS(=O)(=O)c1cn(-c2ncc(-c3cc(C#N)ccc3F)cn2)c2cc(C(=O)N3CC[C@@H](N)C3)ccc12` [Example 229, (R)-3-(2-(6-(3-Aminopyrrolidine-1-carbonyl)-3-(methylsulfonyl)-1H-indol-1-yl)pyrimidin-5-yl)-4-fluorobenzonitrile], the inhibition at 1 µM is 106%.
The value for `COc1ccc(F)c(-c2cnc(-n3cc(S(C)(=O)=O)c4ccc(C(=O)N5CC[C@@H](N)C5)cc43)nc2)c1` [Example 230, (R)-(3-Aminopyrrolidin-1-yl)(1-(5-(2-fluoro-5-methoxyphenyl)pyrimidin-2-yl)-3-(methylsulfonyl)-1H-indol-6-yl)methanone] was 110%.

A word on the inhibition: it is the change of the read-out against control, counted positive when it falls.

For the origin of these results see patent US9315490B2, “2,5-substituted pyrimidines” (Grünenthal GmbH, priority 2014, dated 2016).
